In article PMC8552465 (ACS Omega, 2021):
“And” between values parts separate entries of the source, which are not always exact repeats. Equal values may be shown once. “Also recorded” adds a separate entry of the source.

What was measured:
recombinant human MAO-A = biological target: T1, recombinant human MAO-A (Homo sapiens, UniProt P21397); assay: MAO-A inhibition assay; format: biochemical
T1 sequence (P21397 1-527): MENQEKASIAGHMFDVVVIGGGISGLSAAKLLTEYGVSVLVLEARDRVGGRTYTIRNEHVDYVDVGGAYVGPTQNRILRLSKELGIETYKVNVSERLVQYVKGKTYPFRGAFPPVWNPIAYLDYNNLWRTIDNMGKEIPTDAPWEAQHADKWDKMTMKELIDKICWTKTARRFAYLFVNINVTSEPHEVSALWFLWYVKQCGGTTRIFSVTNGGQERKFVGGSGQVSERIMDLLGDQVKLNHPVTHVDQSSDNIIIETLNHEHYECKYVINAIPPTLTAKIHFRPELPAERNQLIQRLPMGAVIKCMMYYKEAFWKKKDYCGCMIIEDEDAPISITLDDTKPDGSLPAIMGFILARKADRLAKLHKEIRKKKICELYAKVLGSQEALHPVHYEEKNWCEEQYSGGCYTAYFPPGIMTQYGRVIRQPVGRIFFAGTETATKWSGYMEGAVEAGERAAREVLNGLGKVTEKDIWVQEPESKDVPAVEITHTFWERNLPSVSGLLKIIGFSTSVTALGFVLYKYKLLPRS

MAO-B [1] = biological target: T2, MAO-B (Homo sapiens, UniProt P27338); assay: MAO-B inhibition assay; format: biochemical; settings: read-out: residual activity at 10 μM (%) MAO-B
T2 sequence (P27338 1-520): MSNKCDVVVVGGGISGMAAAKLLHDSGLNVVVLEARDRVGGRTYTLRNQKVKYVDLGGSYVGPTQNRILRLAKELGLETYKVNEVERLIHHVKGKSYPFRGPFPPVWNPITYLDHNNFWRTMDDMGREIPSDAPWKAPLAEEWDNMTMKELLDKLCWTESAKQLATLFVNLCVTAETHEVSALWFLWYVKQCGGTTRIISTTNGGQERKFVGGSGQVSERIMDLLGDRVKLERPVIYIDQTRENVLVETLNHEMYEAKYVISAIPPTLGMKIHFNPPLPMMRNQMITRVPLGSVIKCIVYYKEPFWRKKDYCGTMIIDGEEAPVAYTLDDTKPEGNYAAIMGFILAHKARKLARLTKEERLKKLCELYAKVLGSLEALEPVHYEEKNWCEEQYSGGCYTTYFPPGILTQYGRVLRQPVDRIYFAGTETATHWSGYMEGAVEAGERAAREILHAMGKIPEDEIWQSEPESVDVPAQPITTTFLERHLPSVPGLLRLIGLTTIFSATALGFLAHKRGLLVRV

AChE = AChE (Electrophorus electricus, UniProt O42275); assay: AChE inhibition assay; format: biochemical
BChE [2] = biological target: T3, BChE (Equus caballus, UniProt P81908); assay: BChE inhibition assay; format: biochemical, equine
BACE-1 = BACE-1 (Homo sapiens, UniProt P56817); assay: BACE-1 activity detection kit; format: biochemical; settings: read-out: residual activity at 10 μM (%) BACE-1
MAO-B [3] = biological target: T2, MAO-B; assay: Kinetics of MAO-B inhibition; format: biochemical
BChE [4] = biological target: T3, BChE; assay: Kinetics of BChE inhibition; format: biochemical, equine
MAO-B [5] = biological target: T2, MAO-B; assay: Reversibility of MAO-B inhibition by dialysis; format: biochemical
BChE [6] = biological target: T3, BChE; assay: Reversibility of BChE inhibition by dialysis; format: biochemical, equine
[7] = In vitro toxicity by MTT on Vero cells; settings: African green monkey, Vero cells (African green monkey kidney epithelial cells), Vero cell viability, up to 100 μg/mL, 48 h, MTT
Vero cells = assay: In vitro toxicity by MTT on Vero cells
[8] = Lineweaver–Burk and secondary plots

T3 sequence (P81908 whole entry): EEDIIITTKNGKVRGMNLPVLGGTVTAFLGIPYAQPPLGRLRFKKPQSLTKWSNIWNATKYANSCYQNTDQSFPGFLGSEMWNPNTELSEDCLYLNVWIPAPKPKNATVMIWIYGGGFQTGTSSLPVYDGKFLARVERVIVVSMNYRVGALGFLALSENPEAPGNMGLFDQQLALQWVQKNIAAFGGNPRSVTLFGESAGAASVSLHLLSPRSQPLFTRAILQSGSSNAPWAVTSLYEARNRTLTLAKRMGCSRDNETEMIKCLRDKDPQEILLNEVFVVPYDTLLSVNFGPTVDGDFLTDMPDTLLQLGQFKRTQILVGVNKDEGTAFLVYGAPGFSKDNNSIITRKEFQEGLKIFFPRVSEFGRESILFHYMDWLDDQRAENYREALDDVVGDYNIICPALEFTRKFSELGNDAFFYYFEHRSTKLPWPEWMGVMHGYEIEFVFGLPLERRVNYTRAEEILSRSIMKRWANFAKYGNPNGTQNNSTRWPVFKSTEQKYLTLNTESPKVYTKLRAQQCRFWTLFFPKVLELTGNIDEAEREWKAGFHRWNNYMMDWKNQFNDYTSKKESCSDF
Sequence of AChE (O42275 24-633): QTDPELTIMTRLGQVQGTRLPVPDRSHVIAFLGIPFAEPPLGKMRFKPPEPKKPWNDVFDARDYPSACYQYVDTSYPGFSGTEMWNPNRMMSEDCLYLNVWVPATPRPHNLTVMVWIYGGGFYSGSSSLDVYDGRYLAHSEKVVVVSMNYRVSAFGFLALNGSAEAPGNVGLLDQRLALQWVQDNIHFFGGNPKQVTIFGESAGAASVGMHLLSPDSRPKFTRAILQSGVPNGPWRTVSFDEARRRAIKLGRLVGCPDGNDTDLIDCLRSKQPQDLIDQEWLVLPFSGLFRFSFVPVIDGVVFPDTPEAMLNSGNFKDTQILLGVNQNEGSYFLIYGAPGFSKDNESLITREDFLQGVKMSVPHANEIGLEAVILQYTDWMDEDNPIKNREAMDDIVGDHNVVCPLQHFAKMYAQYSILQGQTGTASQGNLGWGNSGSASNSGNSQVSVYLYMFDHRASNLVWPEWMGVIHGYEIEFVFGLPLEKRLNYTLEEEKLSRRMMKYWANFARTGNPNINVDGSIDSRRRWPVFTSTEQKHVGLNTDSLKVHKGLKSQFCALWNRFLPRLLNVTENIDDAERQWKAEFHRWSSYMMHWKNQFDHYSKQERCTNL
Sequence of BACE-1 (P56817 46-501): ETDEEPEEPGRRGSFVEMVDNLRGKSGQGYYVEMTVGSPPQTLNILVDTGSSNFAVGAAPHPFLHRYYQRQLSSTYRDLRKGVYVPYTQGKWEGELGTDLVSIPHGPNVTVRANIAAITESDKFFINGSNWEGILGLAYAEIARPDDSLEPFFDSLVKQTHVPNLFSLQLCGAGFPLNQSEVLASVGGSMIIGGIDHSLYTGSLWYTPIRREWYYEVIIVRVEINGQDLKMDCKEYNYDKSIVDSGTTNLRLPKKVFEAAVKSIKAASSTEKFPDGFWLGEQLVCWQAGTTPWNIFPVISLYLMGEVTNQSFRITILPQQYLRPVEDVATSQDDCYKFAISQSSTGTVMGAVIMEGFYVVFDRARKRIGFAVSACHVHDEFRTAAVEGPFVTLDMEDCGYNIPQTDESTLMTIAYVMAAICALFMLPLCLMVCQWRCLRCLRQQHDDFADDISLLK

O=C(/C=C/c1ccccc1Cl)c1cc2ccccc2oc1=O [CC2, 3-[(2E)-3-(2-chlorophenyl)prop-2-enoyl]-2H-1-benzopyran-2-one]
IC50 (recombinant human MAO-A): > 40 µM
remaining activity at 10 µM (recombinant human MAO-A; read-out: residual activity at 10 μM (%) MAO-A): 76.6 ± 1.8%
remaining activity at 10 µM (MAO-B [1]): 19.8 ± 5.9%
IC50 (AChE; IC50 (μM) AChE, means ± standard errors, reference compounds after preincubation for 30 min with enzymes): 40.1 ± 0.12 µM
remaining activity at 10 µM (AChE; read-out: residual activity at 10 μM (%) AChE, 10 μM): 69.4 ± 3.6%
IC50 (BChE [2]): 7 ± 0.02 µM
residual activity at 10 μM (%) BChE (BChE [2]; 10 μM): 43.9 ± 3.7%
remaining activity at 10 µM (BChE [2]; read-out: residual activity at 10 μM (%) BChE, 10 μM): < 50%
remaining activity at 10 µM (BACE-1): 61.1 ± 1%
Ki (MAO-B [3]): 0.53 ± 0.04 µM
type of MAO-B inhibition (MAO-B [3]; [8]): competitive
Ki (BChE [4]): 2.84 ± 0.09 µM
type of BChE inhibition (BChE [4]; [8]): competitive
reversibility of MAO-B inhibition (MAO-B [5]): reversible
reversibility of BChE inhibition (BChE [6]): reversible
viability at 48 h, 100 μg/mL [7]: ~70%
IC50 (Vero cells; Chlorocebus sabaeus, Vero, 48 h, read-out: IC50 Vero cell viability): 142 µg/mL and 456 µM
Vero cell viability (Vero cells; up to 100 μg/mL, 48 h, MTT): > 70%
toxicity for Vero cells (Vero cells; up to a concentration of 100 μg/mL): nontoxic; also recorded: not toxic
